The subject of the assay is Ssα-fuc. The assay is described as follows: enzyme kinetics, 4-nitrophenyl substrate hydrolysis. In kind it is biochemical, Saccharolobus solfataricus. As to conditions: 65°C; KM printed as identical within error for Ssα-fuc and Ssα-fuc^B.

What is called Km is the substrate concentration at which the rate is half of its maximum.

SMILES strings stand for the structures.

Turning to `C[C@@H]1O[C@@H](Oc2ccc([N+](=O)[O-])cc2)[C@@H](O)[C@H](O)[C@@H]1O` [4NP-Fuc, 4-nitrophenyl-α-L-fucoside], the Km turned out to be 28.7 ± 5 µM.
